Test results reported in article PMC10850145, “Hormonal steroids induce multidrug resistance and stress response genes in Neisseria gonorrhoeae by binding to MtrR” (Nature Communications, 2024).
“And” between values parts separate entries of the source, which are not always exact repeats. Equal values may be shown once. Read-outs that look alike come from different tables or passages of the source.

System: mtrC-lacZ expression
Type: cell-based, Neisseria gonorrhoeae
Settings: for Miller units, Mean: mtrCDE, ΔmtrR, left block Plate-4; for β-galactosidase activity, Miller units (single replicate) / β-galactosidase activity, individual replicate: mtrR WT in cis; for β-galactosidase activity, individual replicate: single replicate values, second (right) block; for Miller units: single well; for mtrC-lacZ β-galactosidase activity, Mean: left block of sheet (mtrCDE)
[1] = second block of sheet (c39-c76), ΔmtrR + mtrR R176E in trans, 6.25 µM
[2] = second block of sheet (c39-c76), ΔmtrR + mtrR R176E in trans, 12.5 µM
[3] = second block of sheet (c39-c76), ΔmtrR + mtrR R176E in trans, 25 µM
[4] = second block of sheet (c39-c76), ΔmtrR + mtrR R176E in trans, 50 µM

C[C@]12CC[C@H]3[C@@H](CCC4=CC(=O)CC[C@@]43C)[C@@H]1CC[C@@H]2O [Testosterone, testosterone]
Miller units, Mean (testosterone 50 µM): 284 Miller units | Miller units, Mean (testosterone 100 µM): 369 Miller units | β-galactosidase activity, Miller units (single replicate) (1 µM, first data set (c15-c36)): 149 Miller units and 125 Miller units and 138 Miller units and 141 Miller units | β-galactosidase activity, individual replicate (6.25 µM hormone): 103 Miller units and 88 Miller units | β-galactosidase activity, Miller units (single replicate) (6.25 µM, second data set (c53-c74)): 73 Miller units and 58 Miller units | β-galactosidase activity, Miller units (single replicate) (10 µM, first data set (c15-c36)): 251 Miller units and 213 Miller units and 245 Miller units and 230 Miller units | β-galactosidase activity, individual replicate (12.5 µM hormone): 126 Miller units | β-galactosidase activity, Miller units (single replicate) (12.5 µM, second data set (c53-c74)): 92 Miller units and 94 Miller units | β-galactosidase activity, individual replicate (25 µM hormone): 144 Miller units and 138 Miller units | β-galactosidase activity, Miller units (single replicate) (25 µM, first data set (c15-c36)): 283 Miller units and 251 Miller units and 242 Miller units and 281 Miller units | β-galactosidase activity, Miller units (single replicate) (25 µM, second data set (c53-c74)): 129 Miller units and 111 Miller units | β-galactosidase activity, individual replicate (50 µM hormone): 161 Miller units and 150 Miller units | β-galactosidase activity, Miller units (single replicate) (50 µM, first data set (c15-c36)): 237 Miller units and 229 Miller units and 224 Miller units and 225 Miller units | β-galactosidase activity, Miller units (single replicate) (50 µM, second data set (c53-c74)): 118 Miller units and 110 Miller units | β-galactosidase activity, Miller units (single replicate) (100 µM, first data set (c15-c36)): 228 Miller units and 230 Miller units and 281 Miller units and 254 Miller units | β-galactosidase activity, Mean [1]: 60 Miller units | β-galactosidase activity, single replicate [1]: 66 Miller units and 62 Miller units and 61 Miller units and 50 Miller units | β-galactosidase activity, Mean [2]: 68 Miller units | β-galactosidase activity, single replicate [2]: 65 Miller units and 76 Miller units and 70 Miller units and 59 Miller units | β-galactosidase activity, Mean [3]: 80 Miller units | β-galactosidase activity, single replicate [3]: 70 Miller units and 77 Miller units and 92 Miller units and 80 Miller units | β-galactosidase activity, Mean [4]: 83 Miller units | β-galactosidase activity, single replicate [4]: 89 Miller units and 78 Miller units and 94 Miller units and 70 Miller units | Miller units (plate rows 1-4, plate columns 1-6 (first strain), 6.25 µM hormone): 96 Miller units and 59 Miller units and 65 Miller units and 57 Miller units | Miller units (plate rows 1-4, plate columns 1-6 (first strain), 12.5 µM hormone): 116 Miller units and 66 Miller units and 73 Miller units and 70 Miller units | Miller units (plate rows 1-4, plate columns 1-6 (first strain), 25 µM hormone): 132 Miller units and 102 Miller units and 83 Miller units and 75 Miller units | Miller units (plate rows 1-4, plate columns 1-6 (first strain), 50 µM hormone): 147 Miller units and 111 Miller units and 107 Miller units and 103 Miller units | Miller units (plate rows 1-4, plate columns 7-12 (second strain), 6.25 µM hormone): 119 Miller units and 100 Miller units and 89 Miller units and 76 Miller units | Miller units (plate rows 1-4, plate columns 7-12 (second strain), 12.5 µM hormone): 126 Miller units and 101 Miller units and 100 Miller units and 81 Miller units | Miller units (plate rows 1-4, plate columns 7-12 (second strain), 25 µM hormone): 155 Miller units and 122 Miller units and 93 Miller units and 79 Miller units | Miller units (plate rows 1-4, plate columns 7-12 (second strain), 50 µM hormone): 151 Miller units and 132 Miller units and 101 Miller units and 93 Miller units | β-galactosidase activity, mtrC-lacZ, Mean (strain WT (FA19/pLES94-mtrC), hormone 6.25 µM): 141 Miller units | β-galactosidase activity, mtrC-lacZ, Mean (strain WT (FA19/pLES94-mtrC), hormone 12.5 µM): 166 Miller units | β-galactosidase activity, mtrC-lacZ, Mean (strain WT (FA19/pLES94-mtrC), hormone 25 µM): 178 Miller units | β-galactosidase activity, mtrC-lacZ, Mean (strain WT (FA19/pLES94-mtrC), hormone 50 µM): 195 Miller units | mtrC-lacZ β-galactosidase activity, Mean (strain WT, 1 µM hormone): 138 Miller units | β-galactosidase activity, Mean (strain WT, 6.25 µM hormone, second (right) untitled block of sheet Figure S10 (mtrC)): 81 Miller units | mtrC-lacZ β-galactosidase activity, Mean (strain WT, 10 µM hormone): 235 Miller units | mtrC-lacZ β-galactosidase activity, Mean (strain WT, 25 µM hormone): 264 Miller units | β-galactosidase activity, Mean (strain WT, 25 µM hormone, second (right) untitled block of sheet Figure S10 (mtrC)): 130 Miller units | mtrC-lacZ β-galactosidase activity, Mean (strain WT, 50 µM hormone): 229 Miller units | β-galactosidase activity, Mean (strain WT, 50 µM hormone, second (right) untitled block of sheet Figure S10 (mtrC)): 134 Miller units | mtrC-lacZ β-galactosidase activity, Mean (strain WT, 100 µM hormone): 248 Miller units | activation of mtrC (strain producing MtrR R176E): significantly less activation | β-galactosidase activity, mtrC-lacZ, Mean (strain ΔmtrR (FA19 ∆mtrR/pLES94-mtrC), hormone 6.25 µM): 265 Miller units | β-galactosidase activity, mtrC-lacZ, Mean (strain ΔmtrR (FA19 ∆mtrR/pLES94-mtrC), hormone 12.5 µM): 244 Miller units | β-galactosidase activity, mtrC-lacZ, Mean (strain ΔmtrR (FA19 ∆mtrR/pLES94-mtrC), hormone 25 µM): 276 Miller units | β-galactosidase activity, mtrC-lacZ, Mean (strain ΔmtrR (FA19 ∆mtrR/pLES94-mtrC), hormone 50 µM): 272 Miller units | β-galactosidase activity, mtrC-lacZ, Mean (strain ΔmtrR + mtrR D171A (pGCC3-mtrR D171A), hormone 6.25 µM): 170 Miller units | β-galactosidase activity, mtrC-lacZ, Mean (strain ΔmtrR + mtrR D171A (pGCC3-mtrR D171A), hormone 12.5 µM): 175 Miller units | β-galactosidase activity, mtrC-lacZ, Mean (strain ΔmtrR + mtrR D171A (pGCC3-mtrR D171A), hormone 25 µM): 170 Miller units | β-galactosidase activity, mtrC-lacZ, Mean (strain ΔmtrR + mtrR D171A (pGCC3-mtrR D171A), hormone 50 µM): 162 Miller units | mtrC-lacZ β-galactosidase activity, Mean (strain ΔmtrR + mtrR R176E, 1 µM hormone): 178 Miller units | β-galactosidase activity, Mean (strain ΔmtrR + mtrR R176E, 6.25 µM hormone, second (right) untitled block of sheet Figure S10 (mtrC)): 60 Miller units | mtrC-lacZ β-galactosidase activity, Mean (strain ΔmtrR + mtrR R176E, 10 µM hormone): 206 Miller units | β-galactosidase activity, Mean (strain ΔmtrR + mtrR R176E, 12.5 µM hormone, second (right) untitled block of sheet Figure S10 (mtrC)): 68 Miller units | β-galactosidase activity, Mean (strain ΔmtrR + mtrR R176E, 25 µM hormone, second (right) untitled block of sheet Figure S10 (mtrC)): 80 Miller units
